The subject of data set [1] is SFTSV. The data set is classed as cell-based, Severe fever with thrombocytopenia syndrome virus. Conditions: pH 5.
Data set [2] deals with SFTSV. The data set is classed as cell-based, Severe fever with thrombocytopenia syndrome virus.
A short description of the next data set: in vitro. Conditions: African green monkey.
The subject of data set [3] is SFTSV. In kind it is cell-based, Severe fever with thrombocytopenia syndrome virus. This is another data set of the same source.
Data set [4] concerns SFTSV. Kind of data set: microbe, parasite or virus in culture. The note with it: for IC50: Severe fever with thrombocytopenia syndrome virus. In kind it is cell-based.
The subject of data set [5] is SFTSV. In kind it is cell-based, Severe fever with thrombocytopenia syndrome virus. This is another data set of the same source.
Data set [6] concerns SFTSV. Kind of data set: microbe, parasite or virus in culture. In kind it is cell-based.
In data set [7] the test system is SFTSV. The note with it: read-out: IC50 against SFTSV; cited from earlier work.
For data set [8], the system named is SFTSV. In kind it is cell-based, Severe fever with thrombocytopenia syndrome virus. The source holds these as a separate data set.

The term IC99 denotes the concentration needed for an effect of 99%. One may read the IC50 as the concentration that gives 50% inhibition.

The structures appear in SMILES notation. Values joined by “and” are separate entries in the source; they are usually repeats but may differ in a detail not shown here. Equal entries are not always repeated. Where two headings read alike, the source gives them in different places. Bounds are passed on as bounds.

Consider `Oc1c(Cl)cc(Cl)c(Cl)c1Cc1c(O)c(Cl)cc(Cl)c1Cl` [Hexachlorophene, hexachlorophene], for which, in the data set with SFTSV [1], the “syncytium formation in SFTSV-infected cells” value was “dramatically inhibited”. For the same molecule, in the data set on SFTSV [2], the “intracellular viral RNA load vs DMSO, drug co-mixed with SFTSV” value is “Significantly lower viral RNA load”. The CC50 in the data set “in vitro” stood at 24.3 ± 3.2 µM. In addition, in the data set with SFTSV [3], the “virus infectivity after pre-incubation of SFTSV with drug” value was “not significantly”. Further, in the data set on SFTSV [4], the IC99 was determined as 7.5 ± 1.2 µM, the “Selectivity Index (CC50/IC50)” value turned out to be 18.7 and 1.3 ± 0.3 µM corresponded to half-maximal inhibition (IC50). Moreover, the IC50 with SFTSV [4] (read-out: IC50 against SFTSV) was in the range of 1.3 to 2.6 µM. Further, the “inhibitory activity on virus attachment, cells pretreated with drug” value in the data set on SFTSV [5] is on record as “no significant”. In the data set with SFTSV [6], this molecule came in with a plaque reduction of 100%. In addition, in the data set on SFTSV [6] (Severe fever with thrombocytopenia syndrome virus, Vero, read-out: IC50, plaque reduction assay), the IC50 was determined as 2.6 ± 0.14 µM.
`CC1=NN(c2ccc(C)c(C)c2)C(=O)/C1=N\Nc1cccc(-c2cccc(C(=O)O)c2)c1O` [Eltrombopag, eltrombopag] showed a CC50 in “in vitro” of 18.4 ± 0.2 µM. Besides, in the data set with SFTSV [4], the IC99 worked out at 10.3 ± 3.4 µM, the “Selectivity Index (CC50/IC50)” value is listed as 4.5 and the IC50 was 4.1 ± 0.2 µM.
As to `Nc1ccn([C@@H]2O[C@H](CO)[C@@H](O)[C@H]2F)c(=O)n1` [2′-fluoro-2′-deoxycytidine], in the data set on SFTSV [7], the IC50 was 3.7 µM.
Regarding `O=C(O)/C=C/c1ccc(O)c(O)c1` [caffeic acid], in the data set on SFTSV [7], the IC50 is 180 µM.
On to `Oc1cc(Cl)ccc1Oc1ccc(Cl)cc1Cl` [Triclosan, triclosan], for which, in the data set “in vitro”, the CC50 was 17.7 ± 2.9 µM. Further, in the data set with SFTSV [4], the IC99 was found to be 8.5 ± 2.1 µM, the “Selectivity Index (CC50/IC50)” value was 5.5 and it took 3.2 ± 0.4 µM to reach half-maximal inhibition (IC50).
On to `Oc1c(Br)cc(Br)c2cccnc12` [Broxyquinoline, broxyquinoline], for which the CC50 in the data set “in vitro” was 36.4 ± 5.5 µM. In the data set with SFTSV [4], the IC99 is 16.3 ± 4.3 µM, the “Selectivity Index (CC50/IC50)” value worked out at 6.3 and the IC50 is 5.8 ± 1.3 µM.
Consider `NC(=O)c1nc(F)c[nH]c1=O` [favipiravir], for which the half-maximal inhibitory concentration (IC50) in the data set with SFTSV [7] is 25 µM. For the same molecule, the “fold read-out between drug-treated and DMSO-treated groups by ELISA” value with SFTSV [8] was > 10 fold and > 15 fold. Also, the “intracellular viral RNA load vs DMSO, drug co-mixed with SFTSV” value in the data set on SFTSV [2] is “no statistically significant difference”. Moreover, the “difference in SFTSV RNA load between drug-treated and DMSO-treated groups” value with SFTSV [4] is given as “approximately 4 log10”.
For `CCN(CC)Cc1cc(Nc2ccnc3cc(Cl)ccc23)ccc1O` [amodiaquine], the IC50 with SFTSV [7] was 19.1 µM.
Regarding `CNC(=O)c1cc(Oc2ccc(NC(=O)Nc3ccc(Cl)c(C(F)(F)F)c3)c(F)c2)ccn1` [Regorafenib, regorafenib], the CC50 in “in vitro” was 31.3 ± 0.5 µM. In the data set on SFTSV [4], the IC99 was 11.3 ± 0.5 µM, the “Selectivity Index (CC50/IC50)” value is on record as 7.0 and half-maximal inhibition (IC50) was put at 4.5 ± 0.5 µM.
In the case of `NC(=O)c1ncn([C@@H]2O[C@H](CO)[C@@H](O)[C@H]2O)n1` [ribavirin], in the data set on SFTSV [7], the IC50 was 40.1 µM.

The values are drawn from paper PMC6520937 (Viruses, 2019).
